Assay results from US10059713B2 (Takeda Pharmaceutical Company Limited, priority 2014, dated 2018).

Target: human GPR43 (Homo sapiens (Human), UniProt O15552)
Assay: Ca-Flux functional assay: determination of agonist/positive allosteric modulator (PAM) activity
Format: cell-based
Settings: CHO-K1 Gα16 cells stably expressing human GPR43; compound added with EC20 sodium acetate; intracellular Ca2+ by FLIPR; does not distinguish agonist from PAM
Outline: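 Agonist or PAM activity read as intracellular Ca2+ rise by FLIPR after adding compound plus EC20 acetate, acetate EC20 set from a prior curve. Cells: CHO-K1 Gα16 with stable human GPR43. EC50 from ten-point half-log curves starting 10 μM.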

Sequence of human GPR43 (O15552 whole entry): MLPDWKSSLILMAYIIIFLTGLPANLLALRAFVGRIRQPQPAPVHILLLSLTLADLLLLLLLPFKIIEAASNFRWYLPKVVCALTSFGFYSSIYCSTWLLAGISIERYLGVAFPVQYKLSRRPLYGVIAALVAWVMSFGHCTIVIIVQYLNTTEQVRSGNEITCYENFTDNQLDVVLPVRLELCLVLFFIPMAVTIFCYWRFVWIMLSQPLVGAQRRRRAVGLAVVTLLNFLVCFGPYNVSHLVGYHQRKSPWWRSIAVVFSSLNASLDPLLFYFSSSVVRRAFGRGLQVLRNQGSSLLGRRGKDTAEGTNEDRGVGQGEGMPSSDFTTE

SMILES	EC50 [nM]
Nc1[nH]c2c(C3=CCCCC3)nccc2c1S(=O)(=O)c1ccccc1 [Example 18, 3-(benzenesulfonyl)-7-(cyclohex-1-en-1-yl)-1H-pyrrolo[2,3-c]pyridin-2-amine]	528
Cc1nc(N2CCO[C@@H](C)C2)c2[nH]c(N)c(S(=O)(=O)c3ccccc3)c2n1 [Example 226, 7-(benzenesulfonyl)-2-methyl-4-[(2S)-2-methylmorpholin-4-yl]-5H-pyrrolo[3,2-d]pyrimidin-6-amine]	13
COc1ccc(S(=O)(=O)c2c(N)[nH]c3c(N4CCO[C@@H](C)C4)nc(C)nc23)c(F)c1 [Example 233, 7-(2-fluoro-4-methoxybenzenesulfonyl)-2-methyl-4-[(2S)-2-methylmorpholin-4-yl]-5H-pyrrolo[3,2-d]pyrimidin-6-amine]	3
CC1CN(c2ncnc3c(S(=O)(=O)C4CCN(C(=O)OCc5ccccc5)CC4)c(N)[nH]c23)CCO1 (stereo not shown) [Example 206, benzyl 4-{[6-amino-4-(2-methylmorpholin-4-yl)-5H-pyrrolo[3,2-d]pyrimidin-7-yl]sulfonyl}piperidine-1-carboxylate]	2640
Cc1nc(N2CCCC(C)C2)c2[nH]c(N)c(S(=O)(=O)c3ccccc3)c2n1 (stereo not shown) [Example 110, 7-(benzenesulfonyl)-2-methyl-4-(3-methylpiperidin-1-yl)-5H-pyrrolo[3,2-d]pyrimidin-6-amine]	32
Nc1[nH]c2c(O[C@@H]3CCOC3)ncnc2c1S(=O)(=O)c1ccccc1 [Example 159, 7-(benzenesulfonyl)-4-[(3R)-oxolan-3-yloxy]-5H-pyrrolo[3,2-d]pyrimidin-6-amine]	5250
CCc1nc(C2CCCCC2)c2[nH]c(N)c(S(=O)(=O)c3ccccc3)c2n1 [Example 53, 7-(benzenesulfonyl)-4-cyclohexyl-2-ethyl-5H-pyrrolo[3,2-d]pyrimidin-6-amine]	58
Cc1nc(N2CCO[C@H](C(F)(F)F)C2)c2[nH]c(N)c(S(=O)(=O)c3ccc(Cl)cc3F)c2n1 [Example 284, 7-(4-chloro-2-fluorobenzenesulfonyl)-2-methyl-4-[(2S)-2-(trifluoromethyl)morpholin-4-yl]-5H-pyrrolo[3,2-d]pyrimidin-6-amine]	2
CN(c1ncnc2c(S(=O)(=O)c3ccccc3)c(N)[nH]c12)C1CCOC(C)(C)C1 (stereo not shown) [Example 189, 7-(benzenesulfonyl)-4-N-(2,2-dimethyloxan-4-yl)-4-N-methyl-5H-pyrrolo[3,2-d]pyrimidine-4,6-diamine]	1970
Nc1[nH]c2c(C3=CCCCC3)ncnc2c1S(=O)(=O)c1ccccn1 [Example 20, 4-(cyclohex-1-en-1-yl)-7-(pyridine-2-sulfonyl)-5H-pyrrolo[3,2-d]pyrimidin-6-amine]	317
Nc1[nH]c2c(N3CCCC3)ncnc2c1S(=O)(=O)c1ccccc1 [Example 31, 7-(benzenesulfonyl)-4-(pyrrolidin-1-yl)-5H-pyrrolo[3,2-d]pyrimidin-6-amine]	720
CCN(Cc1cnn(C)c1)c1ncnc2c(S(=O)(=O)c3ccccc3)c(N)[nH]c12 [Example 64, 7-(benzenesulfonyl)-4-N-ethyl-4-N-[(1-methyl-1H-pyrazol-4-yl)methyl]-5H-pyrrolo[3,2-d]pyrimidine-4,6-diamine]	2350
C=C(C)c1cncc2c(S(=O)(=O)c3ccccc3)c(N)[nH]c12 [Example 100, 3-(benzenesulfonyl)-7-(prop-1-en-2-yl)-1H-pyrrolo[3,2-c]pyridin-2-amine]	145
Cc1nc(N2CCO[C@@H](C)C2)c2[nH]c(N)c(S(=O)(=O)c3ccc(Cl)cc3F)c2n1 [Example 235, 7-(4-chloro-2-fluorobenzenesulfonyl)-2-methyl-4-[(2S)-2-methylmorpholin-4-yl]-5H-pyrrolo[3,2-d]pyrimidin-6-amine]	2
Nc1[nH]c2c(N3CCOC4(CCCC4)C3)ncnc2c1S(=O)(=O)c1ccccc1 [Example 102, 7-(benzenesulfonyl)-4-{6-oxa-9-azaspiro[4.5]decan-9-yl}-5H-pyrrolo[3,2-d]pyrimidin-6-amine]	18
CC1CN(c2ncnc3c(S(=O)(=O)CCc4ccccc4)c(N)[nH]c23)CCO1 (stereo not shown) [Example 153, 4-(2-methylmorpholin-4-yl)-7-(2-phenylethanesulfonyl)-5H-pyrrolo[3,2-d]pyrimidin-6-amine]	814
Cc1nc(N2CCO[C@@H](C(F)(F)F)C2)c2[nH]c(N)c(S(=O)(=O)c3c(F)cccc3F)c2n1 [Example 295, 7-(2,6-difluorobenzenesulfonyl)-2-methyl-4-[(2R)-2-(trifluoromethyl)morpholin-4-yl]-5H-pyrrolo[3,2-d]pyrimidin-6-amine]	3
Cc1nc(N2CCO[C@H](C(F)(F)F)C2)c2[nH]c(N)c(S(=O)(=O)c3c(F)cccc3F)c2n1 [Example 294, 7-(2,6-Difluorobenzenesulfonyl)-2-methyl-4-[(2S)-2-(trifluoromethyl)morpholin-4-yl]-5H-pyrrolo[3,2-d]pyrimidin-6-amine]	4
Nc1[nH]c2c(OC3CCOCC3)ncnc2c1S(=O)(=O)c1ccccc1 [Example 166, 7-(benzenesulfonyl)-4-(oxan-4-yloxy)-5H-pyrrolo[3,2-d]pyrimidin-6-amine]	1640

SMILES	EC50 [nM]
Cc1nc(OC2CC(F)(F)C2)c2[nH]c(N)c(S(=O)(=O)c3ccccc3)c2n1 [Example 259, 7-(benzenesulfonyl)-4-(3,3-difluorocyclobutoxy)-2-methyl-5H-pyrrolo[3,2-d]pyrimidin-6-amine]	66
Nc1[nH]c2c(C3CCCCC3)cncc2c1S(=O)(=O)c1ccccc1 [Example 32, 3-(benzenesulfonyl)-7-cyclohexyl-1H-pyrrolo[3,2-c]pyridin-2-amine]	37
Cc1nc(N2CCOC(C)(C)C2)c2[nH]c(N)c(S(=O)(=O)c3ccc(F)cc3F)c2n1 [Example 278, 7-(2,4-difluorobenzenesulfonyl)-4-(2,2-dimethylmorpholin-4-yl)-2-methyl-5H-pyrrolo[3,2-d]pyrimidin-6-amine]	6
Cc1nc(N2CCOC3(CC3)C2)c2[nH]c(N)c(S(=O)(=O)c3ccccc3F)c2n1 [Example 208, 7-(2-fluorobenzenesulfonyl)-2-methyl-4-{4-oxa-7-azaspiro[2.5]octan-7-yl}-5H-pyrrolo[3,2-d]pyrimidin-6-amine]	3
Cc1nc(N2CCO[C@H](C(F)(F)F)C2)c2[nH]c(N)c(S(=O)(=O)c3cccc(F)c3F)c2n1 [Example 285, 7-(2,3-difluorobenzenesulfonyl)-2-methyl-4-[(2S)-2-(trifluoromethyl)morpholin-4-yl]-5H-pyrrolo[3,2-d]pyrimidin-6-amine]	2
Cc1nc(N2CCO[C@H](C(F)(F)F)C2)c2[nH]c(N)c(S(=O)(=O)c3ccc(F)cc3F)c2n1 [Example 283, 7-(2,4-difluorobenzenesulfonyl)-2-methyl-4-[(2S)-2-(trifluoromethyl)morpholin-4-yl]-5H-pyrrolo[3,2-d]pyrimidin-6-amine]	1
Nc1[nH]c2c(N3CCCCCC3)ncnc2c1S(=O)(=O)c1ccccc1 [Example 48, 4-(azepan-1-yl)-7-(benzenesulfonyl)-5H-pyrrolo[3,2-d]pyrimidin-6-amine]	209
Nc1[nH]c2c(-n3cccn3)ncnc2c1S(=O)(=O)c1ccccc1 [Example 128, 7-(benzenesulfonyl)-4-(1H-pyrazol-1-yl)-5H-pyrrolo[3,2-d]pyrimidin-6-amine]	797
COc1ccc(S(=O)(=O)c2c(N)[nH]c3c(N4CCCC(C)C4)ncnc23)cc1 (stereo not shown) [Example 106, 7-(4-methoxybenzenesulfonyl)-4-(3-methylpiperidin-1-yl)-5H-pyrrolo[3,2-d]pyrimidin-6-amine]	15
Cc1nc(COc2ncnc3c(S(=O)(=O)c4ccccc4)c(N)[nH]c23)c(C)o1 [Example 163, 7-(benzenesulfonyl)-4-[(dimethyl-1,3-oxazol-4-yl)methoxy]-5H-pyrrolo[3,2-d]pyrimidin-6-amine]	6260
COC1CCCN(c2ncnc3c(S(=O)(=O)c4ccccc4)c(N)[nH]c23)C1 (stereo not shown) [Example 105, 7-(benzenesulfonyl)-4-(3-methoxypiperidin-1-yl)-5H-pyrrolo[3,2-d]pyrimidin-6-amine]	207
Cc1nc(OC2CCC(F)(F)CC2)c2[nH]c(N)c(S(=O)(=O)c3ccccc3)c2n1 [Example 254, 7-(benzenesulfonyl)-4-[(4,4-difluorocyclohexyl)oxy]-2-methyl-5H-pyrrolo[3,2-d]pyrimidin-6-amine]	29
Cc1nc(OC2CCOC(C)(C)C2)c2[nH]c(N)c(S(=O)(=O)c3ccccc3F)c2n1 (stereo not shown) [Example 273, -[(2,2-dimethyloxan-4-yl)oxy]-7-(2-fluorobenzenesulfonyl)-2-methyl-5H-pyrrolo[3,2-d]pyrimidin-6-amine]	63
Cc1nc(C2CCC(F)(F)CC2)c2[nH]c(N)c(S(=O)(=O)c3ccccc3)c2n1 [Example 183, 7-(benzenesulfonyl)-4-(4,4-difluorocyclohexyl)-2-methyl-5H-pyrrolo[3,2-d]pyrimidin-6-amine]	173
Nc1[nH]c2c(N3CCO[C@@H](c4ccccc4)C3)ncnc2c1S(=O)(=O)c1ccccc1 [Example 134, 7-(benzenesulfonyl)-4-[(2S)-2-phenylmorpholin-4-yl]-5H-pyrrolo[3,2-d]pyrimidin-6-amine]	93
CC1CN(c2ncnc3c(S(=O)(=O)c4ccccc4)c(N)[nH]c23)CCO1 (stereo not shown) [Example 52, 7-(benzenesulfonyl)-4-(2-methylmorpholin-4-yl)-5H-pyrrolo[3,2-d]pyrimidin-6-amine]	43
Cc1nc(N2CCOC(C)C2)c2[nH]c(N)c(S(=O)(=O)c3ccccc3)c2n1 (stereo not shown) [Example 111, 7-(benzenesulfonyl)-2-methyl-4-(2-methylmorpholin-4-yl)-5H-pyrrolo[3,2-d]pyrimidin-6-amine]	19
Cc1nc(N2CCO[C@@H](C)C2)c2[nH]c(N)c(S(=O)(=O)c3ccccc3Cl)c2n1 [Example 261, 7-(2-chlorobenzenesulfonyl)-2-methyl-4-[(2S)-2-methylmorpholin-4-yl]-5H-pyrrolo[3,2-d]pyrimidin-6-amine]	14
